# Test results taken from patent US8957049B2, “Inhibitors of fatty acid amide hydrolase” (Infinity Pharmaceuticals, Inc., priority 2008, dated 2015).
# Target: T1, human FAAH (Homo sapiens, UniProt O00519)
# T1 construct: host or cells: COS-7 cells, transient transfection (FuGENE 6); 13,000 g membrane fraction solubilised in 1% Triton X-100
# T1 sequence (O00519 1-579): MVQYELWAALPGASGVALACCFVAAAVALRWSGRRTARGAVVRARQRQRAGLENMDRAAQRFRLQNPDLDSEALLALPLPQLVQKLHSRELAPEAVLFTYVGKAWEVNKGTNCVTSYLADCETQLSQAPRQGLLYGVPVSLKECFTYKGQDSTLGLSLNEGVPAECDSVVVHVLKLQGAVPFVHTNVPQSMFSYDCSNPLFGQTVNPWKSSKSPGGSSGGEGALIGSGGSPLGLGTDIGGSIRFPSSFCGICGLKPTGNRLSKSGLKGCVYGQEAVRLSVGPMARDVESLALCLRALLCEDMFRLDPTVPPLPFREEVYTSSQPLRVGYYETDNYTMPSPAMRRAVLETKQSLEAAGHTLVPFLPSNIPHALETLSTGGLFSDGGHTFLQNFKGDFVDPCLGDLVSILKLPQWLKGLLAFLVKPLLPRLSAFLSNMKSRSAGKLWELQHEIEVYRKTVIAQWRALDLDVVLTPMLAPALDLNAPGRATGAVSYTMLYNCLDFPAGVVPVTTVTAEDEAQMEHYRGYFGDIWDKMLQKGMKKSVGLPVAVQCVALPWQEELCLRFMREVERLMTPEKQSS
# Experiment: Human FAAH biochemical inhibition assay (AMC arachidonoyl amide fluorescence)
# Conditions: Table A, read-out: Activity (Ki) of other boronic acids tested, Table A
# Procedure: Exemplary compounds are set forth in the Examples provided below. Compounds were assayed as inhibitors of human FAAH using the method described in detail in Example 286.
# The following assays may be used to determine the inhibition of FAAH by the compounds of the present invention: (1) a fluorescence-based assay for fatty acid amide hydrolase compatible with high-throughput screening as described in Manjunath et al., Analytical Biochemistry (2005) 343:143-151; and (2) a high-throughput screening for the discovery of inhibitors of fatty acid amide hydrolase using a microsome-based fluorescent assay. Wang et al., Biomolecular Screening (2006) 1-9.
# COS-7 cells were split the day before, 1:5 into 150 mm×25 mm cell culture dishes (Corning Inc., Cat. No. 430599). Transient transfection took place at 30-40% confluency according to FuGENE 6 Transfection Reagent (Roche, Cat. No. 11814 443 001).
# The FuGENE transfection 6 reagent (45 uL) was added to 1410 μL of media (DMEM, serum free without pen/strep) in a 15 mL conical tube and incubated at room temp for 5 minutes, followed by the addition of FAAH plasmid DNA (15 μg) (OriGene Cat. No. TC119221, Genbank Accession No. NM_001441.1, 0.67 ug/uL) and a further incubation of 15 minutes at room temperature. The resulting solution was added into one dish of 30-40% confluent COS-7 cells in a drop-wise manner. The COS-7 cell dish was subsequently incubated for 48 hours. The cells are then harvested.
# Media was aspirated from the dishes and the cells rinsed with 10 mL PBS. The PBS was removed and 3 mL of PBS added to the dish. The dish was scraped to resuspend the cells, and the subsequent cell suspension collected into a 15 mL conical tube. The cells were pelleted by centrifugation at 1200 rpm for 5 minutes in a bench top centrifuge. PBS was removed and the cell pellet snap frozen in liquid nitrogen and stored at −80° C.
# COS-7 Cells—FAAH Purification: • (1) Fractionation: Frozen cell pellets from transient transfections were thawed on ice and resuspended in 12.5 mM Hepes pH 8.0, 100 mM NaCl, 1 mM EDTA (10 mL/0.2 g cell pellet). The pellets were dounce homogenized and then sonicated to produce cell extract. The cell extract was subsequently centrifuged at 1000 g to remove cellular debris. The pellet was discarded and the supernatant centrifuged at 13,000 g for 20 minutes. The pellet contained membrane bound FAAH. The supernatant was discarded and the pellet resolubilized. • (2) Re-solubilization: The fraction of interest, (13,000 g, membrane fraction) was re-suspended in 2.3 mL re-suspension buffer (20 mM Hepes pH 7.8, 10% v/v Glycerol, 1 mM EDTA, 1% Triton X-100) and the sample incubated on ice for 1 hour and then centrifuged to remove any particulate matter. The supernatant containing solubilized human FAAH was aliquoted and snap frozen in liquid nitrogen and stored at −80° C. until use. • (3) Characterization: Protein Concentration determined by Bradford assay. • SDS gel and Western blot to confirm presence of FAAH • FAAH activity assay • Km determination—96-well assay • Linear dependence—96-well assay • Standard compound Ki determination—384-well assay
# Rat FAAH biochemical assays were carried out in a 96 well flat bottom black non-treated polystyrene plates (Corning Costar Catalogue #3915). FAAH reaction buffer: 50 mM Hepes (pH 7.5), 1 mM EDTA, 0.2% Triton X-100. FAAH substrate—AMC Arachidonoyl Amide (Cayman Chemicals Company, Catalog #10005098). The reaction was read in an Envision microtiter plate reader [Excitation filter 355 nm (40 nm bandpass); Emmision filter 460 nm (25 nm bandpass)]. The raw fluorescence was plotted on the y axis and the inhibitor concentration on the x axis to give a dose response inhibition curve. The data was fitted to a single site competitive inhibition equation, fixing the Km for the rat and human enzyme to 12 μM and 9 μM respectively. […]
row,Ki [nM],SMILES
1,100 to 1000,OB(O)c1ccc(C(F)(F)F)nc1
2,> 1000,Cc1cc(B2OC(C)(C)C(C)(C)O2)cnc1N1CCN(C)CC1
3,100 to 1000,Cc1cc(B(O)O)cnc1N1CCOCC1
4,10 to 100,OB(O)c1ccc(-c2ccc(F)cc2)nc1
5,> 1000,CC(=O)NCc1ccc(B(O)O)cc1
6,> 1000,CC(=O)Nc1ccc(B(O)O)cc1
7,> 1000,COC(=O)Nc1ccc(B(O)O)cc1
8,10 to 100,O=C(Nc1ccccn1)c1ccc(B(O)O)cc1
9,100 to 1000,COCCNC(=O)c1ccc(B(O)O)cc1
10,10 to 100,O=S(=O)(c1ccc(B(O)O)cc1)n1cccc1
11,> 1000,O=C(O)CCc1ccc(B(O)O)cc1
12,100 to 1000,OB(O)c1ccc(OCCn2ccnc2)cc1
13,100 to 1000,CCOC(=O)COc1ccc(B(O)O)cc1
14,100 to 1000,OCCCc1ccc(B(O)O)cc1
15,> 1000,O=C(NCCCO)c1ccc(B(O)O)cc1
16,100 to 1000,NNC(=O)CCc1ccc(B(O)O)cc1

# Same assay, conditions: class given in each Example, read-out: Activity (Ki, inhibition of human FAAH)
row,Ki [nM],SMILES
1,10 to 100,OB(O)c1ccc(-c2ncc(-c3ccccc3)o2)cc1F [Compound 1]
2,10 to 100,OB(O)c1ccc(-c2ncc(-c3ccccc3)o2)cc1 [Compound 2]
3,> 1000,OB(O)c1ccc(-c2ncc(-c3ccccc3)s2)cc1F [Compound 3]
4,> 1000,OB(O)c1ccc(-c2nc(-c3ccccc3)c[nH]2)cc1F [Compound 7]
5,> 1000,OB(O)c1ccc(-c2nc(CCc3ccccc3)c(-c3ccccc3)s2)cc1 [Compound 8]
6,≤ 10,CCCCCc1nnc(-c2ccc(B(O)O)cn2)o1 [Compound 9]
7,100 to 1000,O=C1CCCN1CCc1nnc(-c2ccc(B(O)O)cc2)o1 [Compound 10]
8,100 to 1000,Cc1nnc(-c2cc(C(F)(F)F)ccc2B(O)O)o1 [Compound 11]
9,10 to 100,OB(O)c1ccc(-c2nnc(-c3ccccc3)o2)nc1 [Compound 12]
10,> 1000,CCCc1nnc(-c2ccccc2B(O)O)o1 [Compound 13]
11,≤ 10,CCCc1nnc(-c2cc(OCCc3ccccc3)ccc2B(O)O)o1 [Compound 17]
12,≤ 10,OB(O)c1ccc(OCCc2ccccc2)cc1-c1nnc(-c2ccco2)o1 [Compound 18]
13,≤ 10,Cc1nnc(-c2cc(OCCc3ccccc3)ccc2B(O)O)o1 [Compound 19]
14,≤ 10,OB(O)c1ccc(-c2nnc(CCC(F)(F)C(F)(F)F)o2)cc1 [Compound 20]
15,≤ 10,OB(O)c1ccc(-c2nnc(-c3cccnc3)o2)cc1 [Compound 21]
16,> 1000,CCCc1nnc(-c2ccc(F)cc2B(O)O)o1 [Compound 22]
17,10 to 100,Cc1nc(Cc2nnc(-c3ccc(B(O)O)cc3)o2)cs1 [Compound 23]
18,≤ 10,CCCc1nc(-c2ccc(B(O)O)cc2)no1 [Compound 24]
19,≤ 10,CCC/C=C/c1nnc(-c2ccc(B(O)O)cc2)o1 [Compound 25]

row,Ki [nM],SMILES
1,≤ 10,CCCCCc1nnc(-c2ccc(B(O)O)c(F)c2)o1 [Compound 26]
2,≤ 10,CCCCCc1nnc(-c2cc(B(O)O)cs2)o1 [Compound 27]
3,100 to 1000,Cc1nnc(/C=C/c2ccccc2B(O)O)o1 [Compound 28]
4,≤ 10,CCCCCc1nnc(-c2ccc(B(O)O)cc2Cl)o1 [Compound 29]
5,≤ 10,CCCCCc1nnc(-c2ccc(B(O)O)cc2)o1 [Compound 30]
6,> 1000,OB(O)c1ccccc1-c1nnc(-c2ccccc2)o1 [Compound 31]
7,≤ 10,CCC(C)CCc1nnc(-c2ccc(B(O)O)cc2)o1 (stereo not shown) [Compound 32]
8,≤ 10,OB(O)c1ccc(-c2nnc(CCC3CCCC3)o2)cc1 [Compound 33]
9,≤ 10,CCCCC(C)c1nnc(-c2ccc(B(O)O)cc2)o1 (stereo not shown) [Compound 34]
10,≤ 10,OB(O)c1ccc(-c2nnc(CC3CCCC3)o2)cc1 [Compound 35]
11,≤ 10,OB(O)c1ccc(-c2nnc(CCC3CCCCC3)o2)cc1 [Compound 36]
12,≤ 10,CCCCCCc1nnc(-c2ccc(B(O)O)cc2)o1 [Compound 37]
13,≤ 10,CC(C)CCCc1nnc(-c2ccc(B(O)O)cc2)o1 [Compound 38]
14,≤ 10,CCCc1nnc(-c2ccc(B(O)O)cc2)o1 [Compound 39]
15,≤ 10,OB(O)c1ccc(-c2nnc(CCCC(F)(F)F)o2)cc1 [Compound 40]
16,10 to 100,OB(O)c1ccc(-c2nnc(-c3cncc(F)c3)o2)cc1 [Compound 41]
17,≤ 10,CCCCc1nnc(-c2ccc(B(O)O)cc2)o1 [Compound 42]
18,≤ 10,OB(O)c1ccc(-c2nnc(-c3cccc4c3OCCO4)o2)cc1 [Compound 43]
19,≤ 10,COc1cccc(-c2nnc(-c3ccc(B(O)O)cc3)o2)c1OC [Compound 44]

row,Ki [nM],SMILES
1,≤ 10,OB(O)c1ccc(-c2nnc(-c3ccc4c(c3)OCO4)o2)cc1 [Compound 45]
2,≤ 10,OB(O)c1ccc(-c2nnc(-c3cccc4c3OCC4)o2)cc1 [Compound 46]
3,≤ 10,OB(O)c1ccc(-c2nnc(-c3cccc(C(F)(F)F)c3)o2)cc1 [Compound 47]
4,≤ 10,OB(O)c1ccc(-c2nnc(-c3cccc(C(F)(F)F)c3)s2)cc1 [Compound 48]
5,≤ 10,OB(O)c1ccc(-c2nnc(-c3cccnc3)s2)cc1 [Compound 49]
6,≤ 10,OB(O)c1ccc(-c2nnc(-c3cccc4c3OCO4)s2)cc1 [Compound 50]
7,≤ 10,Cn1ccc2c(-c3nnc(-c4ccc(B(O)O)cc4)o3)cccc21 [Compound 51]
8,≤ 10,OB(O)c1ccc(-c2nnc(-c3cccc4c3OC(F)(F)O4)o2)cc1 [Compound 52]
9,≤ 10,OB(O)c1ccc(-c2nnc(-c3cccc4c3OCO4)o2)cc1 [Compound 53]
10,10 to 100,Cn1cncc1-c1nnc(-c2ccc(B(O)O)cc2)o1 [Compound 54]
11,10 to 100,OB(O)c1ccc(-c2nnc(Cc3ccccc3)o2)s1 [Compound 55]
12,10 to 100,OB(O)c1ccc(-c2nnc(-c3ccccc3)o2)s1 [Compound 56]
13,≤ 10,OB(O)c1ccc(-c2nnc(CCc3ccccc3)o2)cc1 [Compound 57]
14,≤ 10,OB(O)c1csc(-c2nnc(CCc3ccccc3)o2)c1 [Compound 58]
15,≤ 10,OB(O)c1ccc(-c2nnc(Cc3ccsc3)o2)cc1 [Compound 59]
16,10 to 100,CCCCCc1nnc(-c2coc(B(O)O)c2)o1 [Compound 60]
17,≤ 10,OB(O)c1csc(-c2nnc(Cc3ccccc3)o2)c1 [Compound 60]
18,10 to 100,OB(O)c1csc(-c2nnc(-c3ccccc3)o2)c1 [Compound 61]
19,≤ 10,OB(O)c1ccc(-c2nnc(-c3ccccc3)s2)cc1 [Compound 62]
